The values that follow come from ChEMBL document CHEMBL6071137, “Synthesis and biological studies of 2-aminothiophene derivatives as positive allosteric modulators of glucagon-like peptide 1 receptor” (2024).

Activity calls are given as the source filed them. The rule behind the calls is not given here.

The target in assay [1] is Glucagon-like peptide 1 receptor (Homo sapiens) (UniProt P43220). In words: Positive allosteric modulation of human GLP-1 receptor in HEK cells expressing luciferase2P assessed as fold increase in GLP-1R activity incubated for 4 hrs in presence of GLP-1 by luciferase based assay relative to GLP-1 alone. In kind it is cell-based. As to conditions: filed as positive allosteric modulator.
Glucagon-like peptide 1 receptor (Homo sapiens), sequence (P43220 whole entry): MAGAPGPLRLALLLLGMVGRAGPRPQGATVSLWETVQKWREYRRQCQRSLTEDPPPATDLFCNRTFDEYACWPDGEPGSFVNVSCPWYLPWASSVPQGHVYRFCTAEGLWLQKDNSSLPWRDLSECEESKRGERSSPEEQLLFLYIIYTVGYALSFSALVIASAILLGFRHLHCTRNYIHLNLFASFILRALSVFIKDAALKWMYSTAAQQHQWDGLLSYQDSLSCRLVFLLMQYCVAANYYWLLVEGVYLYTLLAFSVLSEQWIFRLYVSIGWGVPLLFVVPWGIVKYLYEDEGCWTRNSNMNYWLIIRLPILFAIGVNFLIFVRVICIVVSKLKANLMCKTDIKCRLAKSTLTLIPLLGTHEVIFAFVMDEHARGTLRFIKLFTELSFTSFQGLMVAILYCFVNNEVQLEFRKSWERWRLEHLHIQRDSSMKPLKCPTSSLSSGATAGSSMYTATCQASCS

For assay [2] the target is unchanged. In words: Positive allosteric modulation of human GLP-1 receptor in HEK cells expressing luciferase2P assessed as cAMP level incubated for 4 hrs by luciferase based assay relative to GLP-1. In kind it is functional, cell-based. Also noted: concentration or dose not given beside the values. Conditions: filed as positive allosteric modulator.
Assay [3] has the same target. Nature of the assay: Positive allosteric modulation of human GLP-1 receptor in HEK cells expressing luciferase2P incubated for 4 hrs in presence of 10 nM of GLP-1 by luciferase based assay. In kind it is cell-based. Conditions: filed as positive allosteric modulator, dose 0.78-100 µM.
The target is the same in assay [4]. In words: Positive allosteric modulation of human GLP-1 receptor in HEK cells expressing luciferase2P at 5 uM incubated for 4 hrs in presence of varying concentrations of GLP-1 by luciferase based assay. In kind it is cell-based. As to conditions: filed as positive allosteric modulator.
A short description of assay [5]: Induction of glucose dependent insulin secretion in rat INS-1 832/13 cells expressing GLP-1R assessed as fold increase at 5 uM starved for 2 hrs in KRB buffer followed by 16.7 mM of glucose addition and measured after 90 mins in presence of GLP-1 by ELISA. The assay is classed as functional, INS1(832/13). Conditions: 1.5 h.
In a further assay the test system is INS1(832/13). Nature of the assay: Induction of glucose dependent insulin secretion in rat INS-1 832/13 cells expressing GLP-1R at 5 uM starved for 2 hrs in KRB buffer followed by glucose addition and measured after 90 mins by ELISA. In kind it is functional, cell-based.

Turning to `CCOC(=O)c1c(N)sc2c1CCN(C(=O)OCc1ccccc1)C2`, in assay [1], the fold change (FC) was greater than 2. For the same compound, the Activity in assay [2] was found to be 184%.
As for `Nc1sc2c(c1C(=O)c1ccc(Cl)cc1)CCN(C(=O)OCc1ccccc1)C2`, in assay [1], the fold change (FC) is greater than 2. Also, the Activity in assay [2] came out at 155%.
On to `Cc1ccc(C(=O)c2c(N)sc3c2CCSC3)cc1`, for which the fold change (FC) in assay [1] is greater than 2. Also, the Activity in assay [2] amounted to 92.5%.
In the case of `CCOC(=O)c1c(N)sc2c1CCN(C)C2`, the fold change (FC) in assay [1] was greater than 2. In addition, the Activity in assay [2] was 75.7%.
Taken in the same sequence, the figures for `CCOC(=O)c1c(N)sc2c1CCN(C(=O)OC(C)(C)C)C2` were greater than 2 and 164%.
For `CCOC(=O)c1c(N)sc2c1CC(C)(C)CC2` the same measures were greater than 2 and 133%.
For `Cc1ccc(C(=O)c2c(N)sc3c2CCOC3)cc1` the same measures were greater than 2 and 118%.
As for `Nc1sc2c(c1C(=O)c1ccc(Cl)cc1)CCSC2`, in assay [1], the fold change (FC) was greater than 2. Besides, the Activity in assay [2] is 112%.
Turning to `Cc1ccc(C(=O)c2c(N)sc3c2CCC(C)C3)cc1` (racemic), the Activity entry was “Dose-Dependent Effect” in assay [3] and 242% in assay [2]. Besides, the result (in assay [4]; with INS1(832/13)) was Active. The fold change (FC) in assay [1] and in assay [5] was greater than 2 in each case.
`CCOC(=O)c1c(N)sc2c1C(C)CCC2` (racemic): the fold change (FC) in assay [1] is greater than 2. Moreover, in assay [2], the Activity was found to be 82%.
Taken in the same sequence, the figures for `CCOC(=O)N1CCc2c(sc(N)c2C(=O)c2ccc(Cl)cc2)C1` were greater than 2 and 222%.
For `CCOC(=O)c1c(N)sc2c1CCN(C1CC1)C2` the same measures were greater than 2 and 88.3%.
For `CCOC(=O)c1c(N)sc2c1CCN(C(C)=O)C2` the same measures were greater than 2 and 147%.
As to `CCOC(=O)c1c(N)sc2c1CCSC2`, the fold change (FC) in assay [1] was greater than 2. The Activity in assay [2] worked out at 192%.
Taken in the same sequence, the figures for `Nc1sc2c(c1C(=O)c1ccc(Cl)cc1)CCOC2` were greater than 2 and 177%.
As for `CCOC(=O)c1c(N)sc2c1CCN(C(C)C)C2`, the fold change (FC) in assay [1] is greater than 2. For the same compound, the Activity in assay [2] worked out at 82.2%.
Taken in the same sequence, the figures for `CCOC(=O)N1CCc2c(sc(N)c2C(=O)c2ccc(C)cc2)C1` were greater than 2 and 98.1%.
For `CCOC(=O)c1c(N)sc2c1CCC(C(C)C)C2` (racemic) the same measures were greater than 2 and 247%.
With `CC(=O)N1CCc2c(sc(N)c2C(=O)c2ccc(Cl)cc2)C1`, in assay [1], the fold change (FC) was greater than 2. Besides, the Activity in assay [2] worked out at 239%.
For `CCOC(=O)c1c(N)sc2c1CCC(C(F)(F)F)C2` (racemic) the same measures were greater than 2 and 183%.
As for `CCOC(=O)N1CCc2c(sc(N)c2C(=O)c2ccccc2)C1`, the results for the Activity result in assay [3] and in assay [2] were “Dose-Dependent Effect” and 233%, respectively. The outcome (in assay [4]; with INS1(832/13)) was Active. Further, the fold change (FC) in assay [1] and in assay [5] was greater than 2 each time.
Consider `C=CCOC(=O)N1CCc2c(sc(N)c2C(=O)c2ccccc2)C1`, for which the Activity entry is “Dose-Dependent Effect” in assay [3] and 247% in assay [2]. Also, the result (in assay [4]; in the assay with INS1(832/13)) was Active. Moreover, the fold change (FC) in assay [1] and in assay [5] was greater than 2 in each case.
Regarding `CN1CCc2c(sc(N)c2C(=O)c2ccc(Cl)cc2)C1`, in assay [1], the fold change (FC) is greater than 2. In addition, the Activity in assay [2] was 124%.
For `CCOC(=O)c1c(N)sc2c1CCN(S(=O)(=O)C1CC1)C2` the same measures were greater than 2 and 106%.
For `CCOC(=O)c1c(N)sc2c1CCN(CC)C2` the same measures were greater than 2 and 94.3%.
Taken in the same sequence, the figures for `CCN1CCc2c(sc(N)c2C(=O)c2ccc(C)cc2)C1` were greater than 2 and 99.3%.
Regarding `CCOC(=O)c1c(N)sc2c1CCN(C(=O)OCC)C2`, the fold change (FC) in assay [1] is greater than 2. For the same compound, in assay [2], the Activity was determined as 258%.
Taken in the same sequence, the figures for `C=CCOC(=O)N1CCc2c(sc(N)c2C(=O)OCC)C1` were greater than 2 and 232%.
Taken in the same sequence, the figures for `CCOC(=O)c1c(N)sc2c1CCC(C)(C)C2` were greater than 2 and 164%.
Taken in the same sequence, the figures for `CC(=O)N1CCc2c(sc(N)c2C(=O)c2ccccc2)C1` were greater than 2 and 231%.
Take `CCOC(=O)c1c(N)sc2c1CCC(C)C2` (racemic): the fold change (FC) in assay [1] is greater than 2. In addition, in assay [2], the Activity was found to be 159%.
Consider `CCOC(=O)c1c(N)sc2c1CCC(C(C)(C)C)C2` (racemic), for which, in assay [1], the fold change (FC) was greater than 2. Moreover, the Activity in assay [2] is 195%.
As to `CCCC1CCc2c(sc(N)c2C(=O)OCC)C1` (racemic), the fold change (FC) in assay [1] is greater than 2. Further, the Activity in assay [2] was determined as 157%.
Taken in the same sequence, the figures for `CC1CCc2c(sc(N)c2C(=O)c2ccc(Cl)cc2)C1` (racemic) were greater than 2 and 128%.
Taken in the same sequence, the figures for `CC(=O)N1CCc2c(sc(N)c2C(=O)c2ccc(C)cc2)C1` were greater than 2 and 196%.
Taken in the same sequence, the figures for `Nc1sc2c(c1C(=O)c1ccccc1)CCN(S(=O)(=O)C1CC1)C2` were greater than 2 and 131%.
For `Cc1ccc(C(=O)c2c(N)sc3c2CCN(C(=O)OCc2ccccc2)C3)cc1`, the fold change (FC) in assay [1] is greater than 2. Besides, in assay [2], the Activity was found to be 98.1%.
For `CS(=O)(=O)N1CCc2c(sc(N)c2C(=O)c2ccc(Cl)cc2)C1` the same measures were greater than 2 and 142%.
Taken in the same sequence, the figures for `CCOC(=O)c1c(N)sc2c1CCOC2` were greater than 2 and 86.5%.
